Calls of active or inactive are those of the source.
Columns and labels:
[1] = biological target: T1, Microphthalmia-associated transcription factor (Homo sapiens, UniProt O75030); experiment: TRPM1 promoter luciferase signal decrease, dose response, MITF inhibitor project, cell-based, SK-MEL-5, cherry-picked, set 3 (AID 493073); type: functional
T1 sequence (O75030 whole entry): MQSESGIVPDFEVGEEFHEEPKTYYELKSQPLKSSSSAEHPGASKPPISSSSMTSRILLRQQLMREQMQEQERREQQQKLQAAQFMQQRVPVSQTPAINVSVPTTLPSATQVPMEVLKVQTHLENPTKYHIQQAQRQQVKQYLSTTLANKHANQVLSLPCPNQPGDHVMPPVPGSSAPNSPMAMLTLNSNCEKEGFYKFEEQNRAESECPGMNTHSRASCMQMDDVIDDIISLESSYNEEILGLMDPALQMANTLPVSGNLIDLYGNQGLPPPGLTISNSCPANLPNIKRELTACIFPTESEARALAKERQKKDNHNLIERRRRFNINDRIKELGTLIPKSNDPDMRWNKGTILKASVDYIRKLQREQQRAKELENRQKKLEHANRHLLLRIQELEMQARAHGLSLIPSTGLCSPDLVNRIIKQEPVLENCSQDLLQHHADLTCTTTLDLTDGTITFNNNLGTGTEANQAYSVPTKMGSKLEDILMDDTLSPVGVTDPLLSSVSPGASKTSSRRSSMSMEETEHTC

INS1 = experiment: beta cell apoptosis inhibitors, cytokine rescue, dose response, luminescence, retest (AID 449756); type: functional, cell-based; conditions: Rattus norvegicus;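 also: cell death triggered by IL-1 beta plus TNF-alpha plus IFN-gamma mixture; protective hits raise ATP signal compared with cytokine alone wells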
[2] = miR-122 activators in hepatoma reporter cells, dose response, cell-based, Huh7 psiCHECK-miR122, Renilla luciferase, cherry-picked (AID 651956); type: functional;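 also: huh7 hepatoma cells stably carrying a psiCHECK-2 miR-122 sensor plasmid; renilla luciferase signal reporting endogenous miR-122 activity after 48 h compound exposure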
[3] = HEK293T cytotoxicity, dose response, cytotoxicity control for miR-122 modulator project, cell-based, inhibitor set, cherry-pick, set 2 (AID 720697); type: functional
[4] = HEK293T cytotoxicity, dose response, cytotoxicity control for miR-122 modulator project, cell-based, activator set, cherry-pick (AID 720690); type: functional;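 also: HEK293T human cells scored for general mammalian cytotoxicity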
Paired box protein Pax-8 = Paired box protein Pax-8 (Homo sapiens, UniProt Q06710); experiment: inhibitors of PAX8-driven TPO luciferase reporter, dose response, RMG-I cells, cherry-pick (AID 687027); type: functional, cell-based;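 also: luciferase reporter driven by Pax8 target thyroperoxidase promoter measured by SteadyGlo luminescence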
Paired box protein Pax-8, sequence (Q06710 whole entry): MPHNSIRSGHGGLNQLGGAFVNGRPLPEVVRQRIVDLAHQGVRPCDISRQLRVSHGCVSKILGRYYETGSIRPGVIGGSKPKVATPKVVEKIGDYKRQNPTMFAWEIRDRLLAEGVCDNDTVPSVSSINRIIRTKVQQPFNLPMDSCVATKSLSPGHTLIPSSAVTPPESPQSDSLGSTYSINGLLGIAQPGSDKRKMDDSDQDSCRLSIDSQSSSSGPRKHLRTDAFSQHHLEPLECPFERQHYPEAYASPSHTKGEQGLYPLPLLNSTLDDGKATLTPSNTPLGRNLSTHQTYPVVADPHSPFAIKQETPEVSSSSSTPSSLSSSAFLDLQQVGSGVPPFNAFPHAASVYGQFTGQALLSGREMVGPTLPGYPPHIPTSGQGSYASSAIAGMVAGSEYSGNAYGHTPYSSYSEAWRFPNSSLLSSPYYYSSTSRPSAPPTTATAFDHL

[5] = NIH:OVCAR-3 ovarian cancer cell cytotoxicity, dose response, PAX8 inhibitor project, plate reader, dry powder samples (AID 743044); type: functional, cell-based
[6] = IGROV1 ovarian cancer cell cytotoxicity, dose response, PAX8 inhibitor project, plate reader, dry powder samples (AID 743043); type: functional, cell-based; conditions: IGROV-1
[7] = cytotoxicity in OVCAR8 ovarian cancer cells, dose response, PAX8 project, cell-based, plate reader, dry powder samples (AID 743197); type: functional; conditions: OVCAR-8
[8] = Late-stage results from the probe development effort to identify antagonists of arginine vasopressin receptor 1a (AVPR1a): fluorescence-based cell-based dose response AVPR1a inhibition assay.; type: functional
Vasopressin V1b receptor = Vasopressin V1b receptor (Homo sapiens, UniProt P47901); experiment: Late-stage results from the probe development effort to identify antagonists of arginine vasopressin receptor 1a (AVPR1a): fluorescence-based cell-based dose response AVPR1b inhibition counterscreen assay.; type: functional
Vasopressin V1b receptor, sequence (P47901 whole entry): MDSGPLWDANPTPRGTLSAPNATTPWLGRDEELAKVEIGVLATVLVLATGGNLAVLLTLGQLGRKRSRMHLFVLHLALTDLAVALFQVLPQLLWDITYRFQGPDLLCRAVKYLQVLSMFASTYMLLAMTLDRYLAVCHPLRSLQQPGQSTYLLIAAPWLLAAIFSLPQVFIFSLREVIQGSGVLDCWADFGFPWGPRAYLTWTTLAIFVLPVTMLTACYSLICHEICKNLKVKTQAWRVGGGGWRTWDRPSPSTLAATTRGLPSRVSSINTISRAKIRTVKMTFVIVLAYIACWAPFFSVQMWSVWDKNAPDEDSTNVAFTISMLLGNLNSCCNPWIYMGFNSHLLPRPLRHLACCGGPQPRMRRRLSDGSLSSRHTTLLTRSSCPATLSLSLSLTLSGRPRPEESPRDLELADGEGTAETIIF

Vasopressin V2 receptor = Vasopressin V2 receptor (Homo sapiens, UniProt P30518); experiment: Late-stage results from the probe development effort to identify antagonists of arginine vasopressin receptor 1a (AVPR1a): fluorescence-based cell-based dose response AVPR2 inhibition counterscreen assay.; type: functional
Vasopressin V2 receptor, sequence (P30518 whole entry): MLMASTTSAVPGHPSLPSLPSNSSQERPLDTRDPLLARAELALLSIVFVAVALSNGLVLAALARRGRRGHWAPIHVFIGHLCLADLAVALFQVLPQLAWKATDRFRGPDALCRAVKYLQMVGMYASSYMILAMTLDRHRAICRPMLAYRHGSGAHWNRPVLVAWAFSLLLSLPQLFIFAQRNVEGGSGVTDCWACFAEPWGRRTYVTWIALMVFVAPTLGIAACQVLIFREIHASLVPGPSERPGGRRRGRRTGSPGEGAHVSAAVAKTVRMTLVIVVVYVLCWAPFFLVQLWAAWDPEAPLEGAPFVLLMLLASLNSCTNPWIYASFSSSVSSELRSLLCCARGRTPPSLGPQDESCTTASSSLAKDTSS

[9] = Late-stage results from the probe development effort to identify antagonists of arginine vasopressin receptor 1a (AVPR1a): fluorescence-based cell-based dose response OXTR inhibition counterscreen assay.; type: functional
[10] = A375 melanoma cell viability loss, dose response, counter-screen for MITF inhibitor project, CellTiter-Glo luminescence, dry powder, set 4 (AID 624364); type: functional, cell-based; conditions: A-375;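 also: A375 melanoma cells are MITF independent so this is a counter screen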
[11] = A375 melanoma cell cytotoxicity, dose response, counter-screen for MITF inhibitor project, CellTiter-Glo luminescence, dry powder, set 2 (AID 624489); type: functional, cell-based; conditions: A-375;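 also: actives are compounds lowering A375 viability meaning general cytotoxicity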
[12] = biological target: Potassium channel subfamily K member 3 (Homo sapiens, UniProt O14649); experiment: TASK1 (KCNK3) potassium channel inhibitors, SAR follow-up, CHO cells, FluxOR thallium flux (AID 652212); type: functional
Potassium channel subfamily K member 3, sequence (O14649 whole entry): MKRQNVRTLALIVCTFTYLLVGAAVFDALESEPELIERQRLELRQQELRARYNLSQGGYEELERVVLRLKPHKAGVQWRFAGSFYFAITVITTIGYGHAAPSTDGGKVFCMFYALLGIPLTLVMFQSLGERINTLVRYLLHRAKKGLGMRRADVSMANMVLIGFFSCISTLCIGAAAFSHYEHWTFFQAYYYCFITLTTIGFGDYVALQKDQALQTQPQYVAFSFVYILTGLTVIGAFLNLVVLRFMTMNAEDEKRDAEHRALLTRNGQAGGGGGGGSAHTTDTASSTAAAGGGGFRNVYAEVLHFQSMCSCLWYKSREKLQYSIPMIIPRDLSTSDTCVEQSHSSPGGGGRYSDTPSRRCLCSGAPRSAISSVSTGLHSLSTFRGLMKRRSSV

[13] = HepG2 hepatoma cell cytotoxicity, dose response, cytotoxicity control, CellTiter-Glo luminescence, dry powder, set 3 (AID 720594); type: functional, cell-based
[14] = AlphaScreen signal interference by compounds, dose response, artefact control for ARNT/TACC3 disruptor project, biochemical, dual-tagged ARNT, dry powder (AID 720564)
[15] = biological target: Protein disulfide-isomerase A6 (Homo sapiens, UniProt Q15084); experiment: Secondary Assay for Selectivity of PDI Inhibitors (against ERp5) Measured in Biochemical System Using Plate Reader - 2137-04_Inhibitor_Dose_DryPowder_Activity_Set3.
Protein disulfide-isomerase A6, sequence (Q15084 whole entry): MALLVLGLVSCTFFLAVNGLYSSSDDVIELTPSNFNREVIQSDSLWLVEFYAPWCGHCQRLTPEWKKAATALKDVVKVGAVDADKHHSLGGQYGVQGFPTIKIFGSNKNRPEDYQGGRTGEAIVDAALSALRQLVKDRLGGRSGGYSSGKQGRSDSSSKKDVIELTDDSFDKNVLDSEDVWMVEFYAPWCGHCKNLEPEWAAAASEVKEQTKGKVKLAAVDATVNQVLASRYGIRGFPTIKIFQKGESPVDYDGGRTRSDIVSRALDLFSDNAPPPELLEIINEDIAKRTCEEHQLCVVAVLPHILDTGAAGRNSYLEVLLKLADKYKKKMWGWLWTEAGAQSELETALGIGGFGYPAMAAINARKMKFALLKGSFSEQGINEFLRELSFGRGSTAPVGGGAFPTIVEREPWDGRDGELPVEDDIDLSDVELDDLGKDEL

[16] = HeLa cell cytotoxicity, dose response, cytotoxicity control, ATP luminescence, dry powder (AID 652117); type: functional, cell-based
[17] = biological target: Protein disulfide-isomerase (Homo sapiens, UniProt P07237); experiment: PDI inhibitors, insulin turbidity readout, confirmation, biochemical, dry powder samples, set 2 (AID 652146)
Protein disulfide-isomerase, sequence (P07237 whole entry): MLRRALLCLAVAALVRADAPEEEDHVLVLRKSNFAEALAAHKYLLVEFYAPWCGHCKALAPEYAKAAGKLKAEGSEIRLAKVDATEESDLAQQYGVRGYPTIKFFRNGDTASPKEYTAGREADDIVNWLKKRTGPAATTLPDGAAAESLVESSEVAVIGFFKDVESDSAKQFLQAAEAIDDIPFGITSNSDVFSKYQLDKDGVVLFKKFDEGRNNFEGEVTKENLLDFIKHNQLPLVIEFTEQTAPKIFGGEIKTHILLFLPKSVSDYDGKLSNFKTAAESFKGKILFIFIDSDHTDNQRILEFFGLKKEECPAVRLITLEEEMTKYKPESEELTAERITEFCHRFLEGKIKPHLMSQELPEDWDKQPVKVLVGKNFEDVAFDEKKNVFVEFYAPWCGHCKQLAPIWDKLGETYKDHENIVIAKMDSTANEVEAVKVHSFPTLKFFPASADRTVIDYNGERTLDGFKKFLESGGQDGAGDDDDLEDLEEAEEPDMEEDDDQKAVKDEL

[18] = HepG2 cell cytotoxicity, dose response, cytotoxicity control, cherry-picks, set 5 (AID 1053118); type: functional, cell-based
[19] = HEK293 cell cytotoxicity, dose response, cytotoxicity control, cherry-picks, set 5 (AID 1053117); type: functional, cell-based

Question: Which results are given for `Oc1c(Cl)cc(Cl)cc1/C=N/Nc1ncc(Br)cn1`?
Answer: AC50 [1]: 7.84 µM (active); AC50 (INS1): 0.388 µM (active); AC50 [2]: 54.3 µM (active); AC50 [3]: 5.81 µM (active); AC50 [4]: 22.9 µM (active)

Question: What does the source list for `Cc1ccc(-c2ccc([C@H]3[C@H](CO)N4CCCCN(S(=O)(=O)c5cccc(C)c5)C[C@@H]34)cc2)cc1`?
Answer: AC50 (Paired box protein Pax-8): 8.11 µM (active); AC50 [5]: 31.7 µM (active); AC50 [6]: 55.4 µM (active); AC50 [7]: 46 µM (active)

Question: With `Cc1cccnc1N1CCN(C(=O)N(CC2CC2)c2ccc(Cl)cc2)CC1` as the compound, how does the IC50 [8] read?
Answer: Its IC50 is 0.0084 µM (active).

Question: And the IC50 (Vasopressin V1b receptor)?
Answer: The IC50 was > 50 µM (inactive).

Question: And the IC50 (Vasopressin V2 receptor)?
Answer: The IC50 was > 50 µM (inactive).

Question: What about the IC50 [9] of the same compound?
Answer: The IC50 was > 50 µM (inactive).

Question: For `O=C1C(NS(=O)(=O)c2ccc(Br)cc2)=C(N2CCSCC2)C(=O)c2ccccc21`, which AC50 [10] is on record?
Answer: The AC50 was > 70 µM (inactive).

Question: And the AC50 [11]?
Answer: Its AC50 is > 70 µM (inactive).

Question: For `Cc1cccc(S(=O)(=O)Nc2cccc(NC(=O)c3ccccc3)c2)c1`, which IC50 [12] is on record?
Answer: Its IC50 is 1.45 µM (active).

Question: Which results are given for `CC1CCN(S(=O)(=O)c2ccc(C(=O)Nc3nnc(-c4cccs4)o3)cc2)CC1`?
Answer: AC50 [13]: > 52 µM (inactive); AC50 [14]: 116 µM (active)

Question: What does the source list for `CC(C)OC(=O)C1(CCOc2ccccc2)CCN(Cc2ccc(O)c(Cl)c2)CC1`?
Answer: AC50 [15]: 30 µM (inactive); AC50 [16]: 47.9 µM (active); AC50 [17]: 1 µM (active)

Question: Which AC50 [18] does the source give for `N#Cc1ccc(-c2ccc3c(c2)[C@H]2[C@H](CCN2S(=O)(=O)c2cccc(F)c2)[C@@H](CO)N3)cc1` here?
Answer: The AC50 was 38.1 µM (active).

Question: And the AC50 [19]?
Answer: Its AC50 is 32.8 µM (active).

— ChEMBL document CHEMBL1201862, “PubChem BioAssay data set” (2004)
